The text below walks through data of patent US7193033B2, “Peptide having appetite stimulating activity” (Takeda Pharmaceutical Company Limited, priority 2001, dated 2007).

The target in assay [1] is T1, GPR8 (Homo sapiens, UniProt P48146).
T1 construct: expressed in transfected cells
Nature of the assay: Receptor binding test using [125I-Tyr10]-hGPR8L (1–23) and GPR8-expressed CHO cell membrane fraction. To be noted: inhibition of [125I-Tyr10]-hGPR8L (1–23) binding; membrane fraction 5 μg/ml. The protocol:
Receptor binding test was carried out using [^125I]-labeled hGPR8L (1–23) prepared as described in EXAMPLE 42 and the cell membrane fraction prepared from GPR8-expressed CHO cells prepared in a similar manner to the procedures described in EXAMPLE 6.
The cell membrane fraction prepared from human GPR8-expressed CHO cells was diluted with an assay buffer (25 mM Tris-HCl, 5 mM EDTA (ethylenediaminetetraacetic acid), 0.05% CHAPS (3-[(3-cholamidopropyl)dimethlammonio]-1-propanesulfonate), 0.1% BSA (bovine serum albumin), 0.25 mM PMSF (phenylmethylsulfonyl fluoride), 1 μg/ml pepstatin, 20 μg/ml leupeptin, pH 7.4) in various concentrations. Subsequently, 200 μl each of the dilution was dispensed in a polypropylene tst tube (Falcon 2053). […] After filtration, the residual radioactivity remained on the filter paper was measured with a γ-counter, and the specific binding (SB) was estimated by subtracting the non-specific binding from the total binding. […]
The receptor binding activity of the human and porcine homologue derivatives of the GPR8 ligand peptide, which synthesis was described in the specification, was determined s described in EXAMPLE 43, using the GPR8-expressed cell membrane fraction and [^125I-Tyr^10]-hGPR8L (1–23). […]

Assay [2] concerns the target T1, GPR8. Nature of the assay: GTPγ S binding promoting activity on GPR8-expressed CHO cell membrane fraction. It is filed as biochemical. As for the experimental part: The [^35S]-guanosine 5′-(γ-thio)triphosphate binding promoting activity on a GPR8-expressed CHO cell membrane fraction was assayed by the following procedures. First, preparation of the membrane fraction is described. To 1×10^8 of CHO/GPR8 cells was added 10 ml of a homogenate buffer (10 mM NaHCO3, 5 mM EDTA, 0.5 mM PMSF, 1 μg/ml pepstatin, 4 μg/ml E64, 20 μg/ml leupeptin). The mixture was homogenized by using Polytron (12,000 rpm, 1 min.). The cell homogenate was subjected to centrifugation (1,000 g, 15 mins.) to obtain the supernatant. Next, the supernatant was subjected to ultracentrifugation (Beckman type 30 rotor, 30,000 rpm, 1 hour). The resulting precipitate was used as GPR8-expressed CHO cell membrane fraction.
The GTPγ S binding activity was assayed as follows. The GPR8-expressed CHO cell membrane fraction was diluted with a membrane dilution buffer (50 mM Tris-hydrochloride buffer (pH 7.4), 5 mM MgCl2, 150 mM NaCl, 1 μM GDP) to prepare a cell membrane fraction solution for assay having a protein level of […]. To 200 μl of the cell membrane fraction solution for assay were added 2 μl of 51.5 nM [^35S]-guanosine 5′-(γ-thio)triphosphate (NEN Co.) and a sample fluid. […] After washing twice with 1.5 ml of a wash buffer (50 mM Tris-hydrochloride buffer (pH 7.4), 5 mM MgCl2, 1 mM EDTA, 0.1% BSA), radioactivity of the filter was measured with a liquid scintillation counter. […]

Ends that are not written are not given here. Some results are limits rather than exact numbers.

T1 sequence (P48146 whole entry): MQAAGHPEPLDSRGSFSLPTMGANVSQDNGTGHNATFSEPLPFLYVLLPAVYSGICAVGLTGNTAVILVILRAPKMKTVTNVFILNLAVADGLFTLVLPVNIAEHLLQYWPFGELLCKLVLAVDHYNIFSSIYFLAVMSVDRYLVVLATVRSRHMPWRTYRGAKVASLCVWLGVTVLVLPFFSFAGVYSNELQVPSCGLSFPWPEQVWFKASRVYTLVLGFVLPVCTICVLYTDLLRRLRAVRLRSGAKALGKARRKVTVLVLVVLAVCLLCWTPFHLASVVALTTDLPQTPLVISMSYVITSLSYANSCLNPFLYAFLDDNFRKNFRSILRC

Take `CSCC[C@H](NC(=O)[C@H](CC(C)C)NC(=O)[C@H](CC(C)C)NC(=O)CNC(=O)[C@H](C)NC(=O)[C@H](C)NC(=O)[C@H](CCCNC(=N)N)NC(=O)CNC(=O)[C@@H](NC(=O)[C@@H](NC(=O)[C@H](Cc1c[nH]cn1)NC(=O)[C@H](Cc1ccc(O)cc1)NC(=O)[C@H](CCCNC(=N)N)NC(=O)[C@@H]1CCCN1C(=O)[C@H](CO)NC(=O)[C@H](C)NC(=O)[C@@H](NC(=O)[C@H](Cc1c[nH]cn1)NC(=O)[C@H](CCCCN)NC(=O)[C@H](Cc1ccc(O)cc1)NC(=O)[C@H](Cc1c[nH]c2ccccc12)NC(=O)OCC1c2ccccc2-c2ccccc21)C(C)C)[C@@H](C)O)C(C)C)C(=O)NCC(=O)N[C@@H](CC(C)C)C(=O)O` [Fmoc-hGPR8L(1–23)]: on GPR8 [1], the IC50 (in general, the concentration that gives 50% inhibition) turned out to be 0.2 nM.

Consider “H-WYKHVASPRYHTVGRAAG [hGPR8L(1–18), Trp-Tyr-Lys-His-Val-Ala-Ser-Pro-Arg-Tyr-His-Thr-Val-Gly-Arg-Ala-Ala-Gly]”, for which the EC50 (in general, the concentration at which the effect is half-maximal) on GPR8 [2] is > 10000 nM.

As for H-WYKHVASPRYHTVGRAAGLL [hGPR8L(1–20)], the IC50 at GPR8 [1] worked out at 0.2 nM.
